Experimental data reported in ChEMBL document CHEMBL4340544, “Discovery of 4,6-bis(benzyloxy)-3-phenylbenzofuran as a novel Pin1 inhibitor to suppress hepatocellular carcinoma via upregulating microRNA biogenesis” (Bioorg Med Chem, 2019).
The source made the active and inactive calls. No cut-off for these calls is given here.

Columns and labels:
[1] = molecular target: T1, Peptidyl-prolyl cis-trans isomerase NIMA-interacting 1 (Homo sapiens, UniProt Q13526); test: Inhibition of N-terminal 6-His tagged full length Pin1 (unknown origin) expressed in Escherichia coli at 10 uM using Suc-AEPF-pNA as substrate preincubated for 10 mins followed by substrate addition and measured for 180 secs by spectrophotometry relative to untreated control
[2] = molecular target: T1, Peptidyl-prolyl cis-trans isomerase NIMA-interacting 1; test: Inhibition of N-terminal 6-His tagged full length Pin1 (unknown origin) expressed in Escherichia coli using Suc-AEPF-pNA as substrate preincubated for 10 mins followed by substrate addition and measured for 180 secs by spectrophotometry
SNU-423 = test: Cytotoxicity against human SNU423 cells assessed as reduction in cell viability by MTT assay; assay type: functional, cell-based
[3] = molecular target: T1, Peptidyl-prolyl cis-trans isomerase NIMA-interacting 1; test: Inhibition of Pin1 in human SKHEP1 cells assessed as increase in miR-122 expression at 2.5 uM incubated for 36 hrs by quantitative RT PCR analysis; assay type: cell-based
SK-HEP1 [4] = test: Cytotoxicity against human SKHEP1 cells assessed as reduction in cell viability by MTT assay; assay type: functional, cell-based
[5] = molecular target: T1, Peptidyl-prolyl cis-trans isomerase NIMA-interacting 1; test: Inhibition of Pin1 in human SKHEP1 cells assessed as increase in cytoplasm distribution of XPO5 at 2.5 uM incubated for 36 hrs by DAPI staining based confocal microscopic analysis; assay type: cell-based
[6] = molecular target: Peptidyl-prolyl cis-trans isomerase NIMA-interacting 4 (Homo sapiens) (UniProt Q9Y237); test: Inhibition of recombinant N-terminal His6-tagged Pin4 (unknown origin) expressed in Escherichia coli at 1 to 50 uM using Suc-AEPF-pNA as substrate preincubated for 10 min followed by substrate addition measured for 180 secs
[7] = molecular target: T1, Peptidyl-prolyl cis-trans isomerase NIMA-interacting 1; test: Inhibition of recombinant N-terminal His6-tagged Pin1 (unknown origin) expressed in Escherichia coli at 1 to 50 uM using Suc-AEPF-pNA as substrate preincubated for 10 min followed by substrate addition measured for 180 secs
[8] = molecular target: Peptidyl-prolyl cis-trans isomerase FKBP1A (Homo sapiens) (UniProt P62942); test: Inhibition of recombinant N-terminal His6-tagged FKBP12 (unknown origin) expressed in Escherichia coli at 1 to 50 uM using Suc-AEPF-pNA as substrate preincubated for 10 min followed by substrate addition measured for 180 secs
[9] = molecular target: Peptidyl-prolyl cis-trans isomerase A (Homo sapiens) (UniProt P62937); test: Inhibition of recombinant N-terminal His6-tagged Cyclophilin A (unknown origin) expressed in Escherichia coli at 1 to 50 uM using Suc-AEPF-pNA as substrate preincubated for 10 min followed by substrate addition measured for 180 secs
[10] = molecular target: T1, Peptidyl-prolyl cis-trans isomerase NIMA-interacting 1; test: Inhibition of Pin1 in human SKHEP1 cells assessed as increase in miR-29b expression at 2.5 uM incubated for 36 hrs by quantitative RT PCR analysis; assay type: cell-based
SK-HEP1 [11] = test: Antiproliferation activity against human SKHEP1 cells assessed as reduction in colony formation at 2.5 uM measured after 7 days by crystal violet staining based microscopic analysis; assay type: functional, cell-based

T1 sequence (Q13526 whole entry): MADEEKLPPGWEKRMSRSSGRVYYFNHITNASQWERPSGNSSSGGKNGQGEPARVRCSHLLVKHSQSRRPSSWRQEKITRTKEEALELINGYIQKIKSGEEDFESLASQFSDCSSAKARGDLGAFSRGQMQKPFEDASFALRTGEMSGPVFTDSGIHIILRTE
Sequence of Peptidyl-prolyl cis-trans isomerase FKBP1A (Homo sapiens) (P62942 whole entry, looked up): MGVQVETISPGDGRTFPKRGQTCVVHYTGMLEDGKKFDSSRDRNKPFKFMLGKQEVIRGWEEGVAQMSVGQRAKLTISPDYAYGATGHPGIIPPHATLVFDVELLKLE
Sequence of Peptidyl-prolyl cis-trans isomerase A (Homo sapiens) (P62937 whole entry, looked up): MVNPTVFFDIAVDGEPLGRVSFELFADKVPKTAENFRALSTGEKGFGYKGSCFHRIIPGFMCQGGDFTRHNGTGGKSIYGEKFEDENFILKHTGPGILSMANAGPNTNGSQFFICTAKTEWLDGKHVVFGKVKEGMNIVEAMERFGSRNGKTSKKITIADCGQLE
Sequence of Peptidyl-prolyl cis-trans isomerase NIMA-interacting 4 (Homo sapiens) (Q9Y237 whole entry): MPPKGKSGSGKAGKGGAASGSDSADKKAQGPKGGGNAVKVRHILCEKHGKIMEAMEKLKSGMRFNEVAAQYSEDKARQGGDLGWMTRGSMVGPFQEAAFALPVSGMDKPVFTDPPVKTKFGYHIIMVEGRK

SMILES	inhibition [1] [%]	further results
N#Cc1ccc2occ(-c3ccc4c(c3)OCO4)c2c1	46.9	–
O=[N+]([O-])c1ccc2occ(-c3cccc4ccccc34)c2c1	14	–
COc1ccc(-c2coc3ccccc23)cc1	54.8	–
Cc1ccc(-c2coc3ccc(O)cc23)cc1C	27.8	–
COc1ccc2occ(-c3ccc(C)cc3)c2c1	29.8	–
COc1ccc2occ(-c3ccc(Cl)cc3)c2c1	18	–
Clc1cccc2c(-c3ccccc3)c(-c3ccccc3)oc12	13.6	–
c1ccc2c(-c3ccsc3)coc2c1	43.5	–
Cc1ccc2oc(-c3ccccc3)c(-c3ccccc3)c2c1	13.9	–
Cc1ccc(-c2coc3ccc(O)cc23)cc1	33.1	–
COc1cc(OC)c2c(-c3ccccc3)coc2c1	69.6	–
COc1ccc2occ(-c3ccccc3)c2c1	27	–
Clc1ccc2occ(-c3ccccc3)c2c1	19.2	–
Oc1ccc2occ(-c3ccc(F)cc3)c2c1	23.8	–
COc1ccc2occ(-c3ccc(C)c(C)c3)c2c1	23.7	–
COc1ccc(-c2coc3ccc(C#N)cc23)cc1	38.2	–
c1ccc(COc2cc(OCc3ccccc3)c3c(-c4ccccc4)coc3c2)cc1	75.4	IC50 [2]: 0.874 µM; IC50 (SNU-423): 2.73 µM; inhibition [3]: Active; IC50 (SK-HEP1 [4]): 1.14 µM; inhibition [5]: Active; inhibition [6]: inactive; inhibition [7]: Active; inhibition [8]: inactive; inhibition [9]: inactive; inhibition [10]: Active; Activity (SK-HEP1 [11]): Active
CC(C)(C)c1ccc2occ(-c3ccccc3)c2c1	11	–
COc1cccc2c(-c3ccccc3)coc12	22.2	–
COc1ccc(-c2coc3ccc([N+](=O)[O-])cc23)cc1	43.7	–
Cc1cccc2c(-c3ccccc3)c(-c3ccccc3)oc12	19.6	–
O=C1C=CC(=O)c2c(O)cccc21	52.6	–

SMILES	inhibition [1] [%]	further results
COc1cccc(-c2coc3ccccc23)n1	34.8	–
CC(C)(C)c1ccc2c(-c3ccc4c(c3)OCO4)coc2c1	63.7	–
COc1ccc2c(-c3ccccc3)coc2c1	–	IC50 [2]: 2.23 µM
Cc1ccc(-c2coc3ccc([N+](=O)[O-])cc23)cc1	32.6	–
COc1ccc2occ(-c3ccc(F)cc3)c2c1	30.7	–
COc1ccc2c(C)coc2c1	65.1	–
Cc1ccc(-c2coc3c(Cl)cc([N+](=O)[O-])cc23)cc1	30.3	–
Brc1ccc2occ(-c3ccccc3)c2c1	19.5	–
c1ccc(-c2oc3ccccc3c2-c2ccccc2)cc1	15.8	–
COc1ccc2oc(-c3ccccc3)c(-c3ccccc3)c2c1	25.7	–
Clc1ccc2oc(-c3ccccc3)c(-c3ccccc3)c2c1	22.9	–
Clc1cc(Cl)c2occ(-c3ccccc3)c2c1	16.2	–
Cc1ccc(-c2coc3c(C)c(C)ccc23)cc1	64.6	–
c1coc(-c2coc3ccccc23)c1	22.2	–
COc1cccc2occ(-c3ccccc3)c12	59.5	–
c1ccc(-c2coc3ccccc23)cc1	12.4	–
Oc1ccc2occ(-c3ccccc3)c2c1	28	–
Oc1ccc2occ(-c3ccc(Cl)cc3)c2c1	13.8	–
COc1cc(OC)c2c(C)coc2c1	45.9	–
Clc1ccc(-c2coc3ccccc23)cc1	18.3	–
O=[N+]([O-])c1ccc2occ(-c3ccc4c(c3)OCO4)c2c1	23.4	–
CC(C)(C)c1ccc2occ(-c3ccc(Br)cc3)c2c1	28.9	–
